According to the NIST ThermoML archive (doi:10.1021/acs.jced.7b00335):

Assay: xn = mol fraction of the nth substance listed
Details: 100 kPa, Liquid; for viscosity: Concentric cylinders viscometry; for mass density: Vibrating tube method

O=Cc1ccccc1 [benzaldehyde] + CC(C)O
Details | mass density [kg/m3] | viscosity [mPa·s]
293.15 K, x1 = 0.0809 | 809.6 | 2.11
293.15 K, x1 = 0.1596 | 830.7 | 1.86
293.15 K, x1 = 0.24 | 852.5 | 1.675
293.15 K, x1 = 0.3492 | 882.3 | 1.499
293.15 K, x1 = 0.4399 | 906.4 | 1.42
293.15 K, x1 = 0.5693 | 940.8 | 1.402
293.15 K, x1 = 0.6495 | 962.2 | 1.414
293.15 K, x1 = 0.7399 | 986.2 | 1.434
293.15 K, x1 = 0.8498 | 1012.8 | 1.47
293.15 K, x1 = 0.9399 | 1033.3 | 1.502
293.15 K, x1 = 1 | 1046.3 | 1.52
298.15 K, x1 = 0.0809 | 804.3 | 1.82
298.15 K, x1 = 0.1596 | 826.4 | 1.63
298.15 K, x1 = 0.24 | 848.2 | 1.47
298.15 K, x1 = 0.3492 | 877.9 | 1.342
298.15 K, x1 = 0.4399 | 901.9 | 1.296
298.15 K, x1 = 0.5693 | 936.2 | 1.284
298.15 K, x1 = 0.6495 | 957.6 | 1.298
298.15 K, x1 = 0.7399 | 981.7 | 1.318
298.15 K, x1 = 0.8498 | 1008 | 1.354
298.15 K, x1 = 0.9399 | 1029 | 1.385
298.15 K, x1 = 1 | 1041.7 | 1.41
303.15 K, x1 = 0.0809 | 799.9 | 1.59
303.15 K, x1 = 0.1596 | 821.8 | 1.43
303.15 K, x1 = 0.24 | 843.7 | 1.33
303.15 K, x1 = 0.3492 | 873.4 | 1.233
303.15 K, x1 = 0.4399 | 897.4 | 1.197
303.15 K, x1 = 0.5693 | 931.7 | 1.187
303.15 K, x1 = 0.6495 | 953.1 | 1.196
303.15 K, x1 = 0.7399 | 976.7 | 1.216
303.15 K, x1 = 0.8498 | 1004.1 | 1.252
303.15 K, x1 = 0.9399 | 1024.1 | 1.286
303.15 K, x1 = 1 | 1037.1 | 1.31
308.15 K, x1 = 0.0809 | 795.6 | 1.41
308.15 K, x1 = 0.1596 | 817.6 | 1.29
308.15 K, x1 = 0.24 | 839.2 | 1.2
308.15 K, x1 = 0.3492 | 868.8 | 1.126
308.15 K, x1 = 0.4399 | 892.9 | 1.1
308.15 K, x1 = 0.5693 | 927.2 | 1.098
308.15 K, x1 = 0.6495 | 948.6 | 1.109
308.15 K, x1 = 0.7399 | 972.6 | 1.131
308.15 K, x1 = 0.8498 | 999.3 | 1.163
308.15 K, x1 = 0.9399 | 1019.7 | 1.197
308.15 K, x1 = 1 | 1032.4 | 1.22
313.15 K, x1 = 0.0809 | 791 | 1.23
313.15 K, x1 = 0.1596 | 813 | 1.14
313.15 K, x1 = 0.24 | 834.8 | 1.08
313.15 K, x1 = 0.3492 | 864.4 | 1.03
313.15 K, x1 = 0.4399 | 888.3 | 1.011
313.15 K, x1 = 0.5693 | 922.6 | 1.018
313.15 K, x1 = 0.6495 | 944 | 1.032
313.15 K, x1 = 0.7399 | 967 | 1.051
313.15 K, x1 = 0.8498 | 994.1 | 1.093
313.15 K, x1 = 0.9399 | 1014.6 | 1.124
313.15 K, x1 = 1 | 1027.9 | 1.15
318.15 K, x1 = 0.0809 | 786.7 | 1.08
318.15 K, x1 = 0.1596 | 808.6 | 1
318.15 K, x1 = 0.24 | 830.3 | 0.95
318.15 K, x1 = 0.3492 | 859.8 | 0.918
318.15 K, x1 = 0.4399 | 883.7 | 0.909
318.15 K, x1 = 0.5693 | 918 | 0.916
318.15 K, x1 = 0.6495 | 939.4 | 0.933
318.15 K, x1 = 0.7399 | 963.2 | 0.967
318.15 K, x1 = 0.8498 | 989.7 | 1.015
318.15 K, x1 = 0.9399 | 1010.8 | 1.058
318.15 K, x1 = 1 | 1023.4 | 1.09
323.15 K, x1 = 0.0809 | 782 | 0.97
323.15 K, x1 = 0.1596 | 803.7 | 0.913
323.15 K, x1 = 0.24 | 825.6 | 0.873
323.15 K, x1 = 0.3492 | 855.1 | 0.848
323.15 K, x1 = 0.4399 | 879.1 | 0.84
323.15 K, x1 = 0.5693 | 913.4 | 0.844
323.15 K, x1 = 0.6495 | 934.9 | 0.863
323.15 K, x1 = 0.7399 | 958.9 | 0.892
323.15 K, x1 = 0.8498 | 985 | 0.943
323.15 K, x1 = 0.9399 | 1006 | 0.991
323.15 K, x1 = 1 | 1019.1 | 1.03

O=Cc1ccccc1 [benzaldehyde] + CCC(C)O
Details | mass density [kg/m3] | viscosity [mPa·s]
293.15 K, x1 = 0.0813 | 824.7 | 3.08
293.15 K, x1 = 0.1623 | 842.8 | 2.62
293.15 K, x1 = 0.2401 | 860.9 | 2.3
293.15 K, x1 = 0.3517 | 886.9 | 1.97
293.15 K, x1 = 0.4404 | 908.4 | 1.791
293.15 K, x1 = 0.5612 | 938.1 | 1.648
293.15 K, x1 = 0.6519 | 961 | 1.576
293.15 K, x1 = 0.7423 | 984.4 | 1.528
293.15 K, x1 = 0.8511 | 1012.1 | 1.506
293.15 K, x1 = 0.94 | 1032.5 | 1.511
293.15 K, x1 = 1 | 1046.3 | 1.52
298.15 K, x1 = 0.0813 | 821.2 | 2.65
298.15 K, x1 = 0.1623 | 839.5 | 2.31
298.15 K, x1 = 0.2401 | 857.3 | 2.027
298.15 K, x1 = 0.3517 | 883.2 | 1.75
298.15 K, x1 = 0.4404 | 905.3 | 1.61
298.15 K, x1 = 0.5612 | 934.6 | 1.487
298.15 K, x1 = 0.6519 | 957.6 | 1.426
298.15 K, x1 = 0.7423 | 980.2 | 1.39
298.15 K, x1 = 0.8511 | 1007.3 | 1.38
298.15 K, x1 = 0.94 | 1028.6 | 1.39
298.15 K, x1 = 1 | 1041.7 | 1.41
303.15 K, x1 = 0.0813 | 816.3 | 2.23
303.15 K, x1 = 0.1623 | 834.1 | 1.984
303.15 K, x1 = 0.2401 | 852.4 | 1.78
303.15 K, x1 = 0.3517 | 878.1 | 1.561
303.15 K, x1 = 0.4404 | 899.7 | 1.438
303.15 K, x1 = 0.5612 | 929.2 | 1.322
303.15 K, x1 = 0.6519 | 952.1 | 1.279
303.15 K, x1 = 0.7423 | 975.7 | 1.255
303.15 K, x1 = 0.8511 | 1002.1 | 1.255
303.15 K, x1 = 0.94 | 1023.2 | 1.277
303.15 K, x1 = 1 | 1037.1 | 1.31
308.15 K, x1 = 0.0813 | 812.3 | 1.897
308.15 K, x1 = 0.1623 | 829.9 | 1.7
308.15 K, x1 = 0.2401 | 848.1 | 1.55
308.15 K, x1 = 0.3517 | 873.9 | 1.383
308.15 K, x1 = 0.4404 | 895.3 | 1.284
308.15 K, x1 = 0.5612 | 924.7 | 1.194
308.15 K, x1 = 0.6519 | 947.6 | 1.156
308.15 K, x1 = 0.7423 | 971.1 | 1.139
308.15 K, x1 = 0.8511 | 997 | 1.149
308.15 K, x1 = 0.94 | 1019 | 1.182
308.15 K, x1 = 1 | 1032.4 | 1.22
313.15 K, x1 = 0.0813 | 807.8 | 1.636
313.15 K, x1 = 0.1623 | 825.5 | 1.49
313.15 K, x1 = 0.2401 | 843.7 | 1.366
313.15 K, x1 = 0.3517 | 869.3 | 1.23
313.15 K, x1 = 0.4404 | 890.8 | 1.146
313.15 K, x1 = 0.5612 | 920.3 | 1.079
313.15 K, x1 = 0.6519 | 944.4 | 1.05
313.15 K, x1 = 0.7423 | 966.7 | 1.038
313.15 K, x1 = 0.8511 | 993.4 | 1.057
313.15 K, x1 = 0.94 | 1014.1 | 1.1
313.15 K, x1 = 1 | 1027.9 | 1.15
318.15 K, x1 = 0.0813 | 803 | 1.388
318.15 K, x1 = 0.1623 | 820.8 | 1.265
318.15 K, x1 = 0.2401 | 839 | 1.172
318.15 K, x1 = 0.3517 | 864.6 | 1.068
318.15 K, x1 = 0.4404 | 886.1 | 1.01
318.15 K, x1 = 0.5612 | 915.7 | 0.966
318.15 K, x1 = 0.6519 | 940 | 0.95
318.15 K, x1 = 0.7423 | 962.1 | 0.948
318.15 K, x1 = 0.8511 | 987.7 | 0.979
318.15 K, x1 = 0.94 | 1009.3 | 1.026
318.15 K, x1 = 1 | 1023.4 | 1.09
323.15 K, x1 = 0.0813 | 798.9 | 1.215
323.15 K, x1 = 0.1623 | 816.4 | 1.128
323.15 K, x1 = 0.2401 | 834.6 | 1.056
323.15 K, x1 = 0.3517 | 860 | 0.977
323.15 K, x1 = 0.4404 | 881.5 | 0.932
323.15 K, x1 = 0.5612 | 911 | 0.895
323.15 K, x1 = 0.6519 | 933.9 | 0.882
323.15 K, x1 = 0.7423 | 956 | 0.887
323.15 K, x1 = 0.8511 | 982.1 | 0.913
323.15 K, x1 = 0.94 | 1003.9 | 0.962
323.15 K, x1 = 1 | 1019.1 | 1.03
